Reference: patent publication US20100299778A1, “NUCLEOTIDE SEQUENCE ENCODING ARTEMISINIC ALDEHYDE DOUBLE BOND REDUCTASE, ARTEMISINIC ALDEHYDE DOUBLE BOND REDUCTASE AND USES THEREOF” (National Research Council of Canada, priority 2007, published 2010)
“Also recorded” adds a separate entry of the source.

What was measured:
[1] = molecular target: T1, recombinant AaDBR2 (artemisinic aldehyde double bond reductase) (Artemisia annua, UniProt C5H429, A226G/L231G/N16K); experiment: In vitro enzyme assays of recombinant AaDBR2 with potential substrates, GC/MS analysis; assay type: biochemical; conditions: for activity of AaDBR2 on the substance as substrate: tested as potential substrate, with NADPH, GC/MS
T1 construct: This ORF encodes a 415-amino acid protein with a predicted molecular mass of 45.6 kDa; made in house; host or cells: E. coli Rosetta 2(DE3)
Description: The purified recombinant His-tagged AaDBR2 protein was assayed with artemisinic aldehyde, followed by gas chromatography/mass spectrometry analysis. Enzyme reactions were initiated by adding the 0.4 mM artemisinic aldehyde to 300 μL reaction mixture containing 50 mM Tris-HCl (pH 8.0), 1 mM NADPH, 2 mM DTT and 2.0 μg of AaDBR2. Negative controls were carried out with boiled proteins, without NADPH. Reactions were allowed to proceed for 30 minutes at 30° C. with shaking, stopped by adding 15 μL acetic acid and extracted with 100 μL ethyl acetate. The ethyl acetate extracts were pooled and partially evaporated prior to GC-MS analysis. The reaction products were confirmed by comparing GC retention time and MS data with those of synthetic (11R)-dihydroartemisinic aldehyde. For quantification, octadecane was used as an internal standard.
(§1) For comparison of the catalytic properties of AaDBR2 against other substrates, reaction mixtures were pre-warmed to 30° C., and reactions were initiated by addition of AaDBR2. The pH optimum of the purified AaDBR2 was determined to be 7.5 in assay that included one of three 50 mM buffers (MES, HEPES, and Tris-HCl) adjusted to between pH 5.5 and 9.0 in 0.5-unit intervals and 0.5 mM artemisinic aldehyde and 0.48 μg of purified recombinant AaDBR2. Apparent kinetic parameters were determined under conditions that limited conversion to less than 10% as follows. Concentrations of artemisinic aldehyde (6-250 μM, 0.24 μg of AaDBR2, 2 min), 2-cyclohexen-1-one (80-10,000 μM, 0.48 μg of AaDBR2, 10 min), and (+)-carvone (20-5000 μM, 0.48 μg AaDBR2, 10 min) were varied in the presence of 1 mM NADPH. To assess cofactor specificity, concentrations of NADPH (10-640 μM, 0.48 μg of AaDBR2, 2 min) and NADH (0.2-13 mM, 1.9 μg of AaDBR2, 2 min) were varied in the presence of 0.5 mM artemisinic aldehyde. The ethyl acetate extracts from triplicate reaction mixtures were directly analyzed by GC/MS. Octadecane was used as an internal standard to quantify the products formed from the reactions using response factors determined using standards for each enzyme product. Km and kcat values were determined by nonlinear regression analysis using GraphPad™ software (GraphPad™ Software Inc., San Diego, Calif.).

[2] = molecular target: T1, recombinant AaDBR2 (artemisinic aldehyde double bond reductase); experiment: Apparent kinetic parameters of purified recombinant AaDBR2; assay type: biochemical
Description: as §1

[3] = test system: Plasmodium falciparum; conditions: more active than artesunate; cited from earlier work
[4] = cofactor varied in the presence of 0.5 mM artemisinic aldehyde
[5] = substrate varied in the presence of 1 mM NADPH, 30° C.

T1 sequence (C5H429 other isoform, or with tags, fused parts or gaps N16K/A226G/L231G): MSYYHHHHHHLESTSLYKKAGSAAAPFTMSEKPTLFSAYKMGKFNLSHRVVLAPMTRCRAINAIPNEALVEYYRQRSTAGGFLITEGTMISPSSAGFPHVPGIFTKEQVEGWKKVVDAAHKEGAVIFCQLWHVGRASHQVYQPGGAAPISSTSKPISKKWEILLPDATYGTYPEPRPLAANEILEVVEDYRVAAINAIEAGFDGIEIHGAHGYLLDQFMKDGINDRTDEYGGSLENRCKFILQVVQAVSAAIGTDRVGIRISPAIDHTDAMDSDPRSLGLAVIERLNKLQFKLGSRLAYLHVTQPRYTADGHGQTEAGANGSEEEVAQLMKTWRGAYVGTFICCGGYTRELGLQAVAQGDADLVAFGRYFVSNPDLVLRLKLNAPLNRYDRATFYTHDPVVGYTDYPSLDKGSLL

With `C=C(C(=O)O)[C@@H]1CC[C@@H](C)[C@@H]2CCC(C)=C[C@@H]21` [artemisinic acid] the “activity of AaDBR2 on the substance as substrate” value (“activity of AaDBR2” for short) [1] was “No activity was detected”.
For `NC(=O)C1=CN([C@@H]2O[C@H](COP(=O)(O)OP(=O)(O)OC[C@H]3O[C@@H](n4cnc5c(N)ncnc54)[C@H](O)[C@@H]3O)[C@@H](O)[C@H]2O)C=CC1` [NADH], the “enzyme activity in the presence of the cofactor” value ([1]; preliminary experiments) was “active”, the Km [2, 4] was 770 µM and the kcat [2, 4] was 1.3 s⁻¹.
For `O=C1C=CCCC1` [2-cyclohexen-1-one], the “activity of AaDBR2” value [1] was “has activity”.
In the case of `C=C1C(=O)O[C@@H]2O[C@@]3(C)CC[C@H]4[C@H](C)CC[C@@H]1[C@@]24OO3` [artemisitene], the “activity of AaDBR2” value [1] is reported as “No activity was detected”.
For `C=C1C(=O)CC2(C(C)C)CC12` (stereo not drawn) [sabinone, Sabinone], the “activity of AaDBR2” value [1] was “No activity was detected”.
For `CC(C)=C1CC[C@@H](C)CC1=O` [(+)-pulegone], the “activity of AaDBR2” value [1] was “No activity was detected”.
For `CCCCCC/C=C/C=O` [2E-nonenal], the “rate relative to the rate for artemisinic aldehyde” value ([1]; AaDBR2 substrate, FIG. 8) was “about 12%” and the “activity of AaDBR2” value [1] was “low activity; also recorded: No activity was detected”.
In the case of `C=C1C(=O)O[C@@]23[C@H]1CC[C@@H](C)[C@@H]2CC[C@@]1(C)O[C@@H]31` [arteannuin B, Arteannuin B], the “activity of AaDBR2” value [1] is reported as “No activity was detected”.
Work on `NC(=O)C1=CN([C@@H]2O[C@H](COP(=O)(O)OP(=O)(O)OC[C@H]3O[C@@H](n4cnc5c(N)ncnc54)[C@H](OP(=O)(O)O)[C@@H]3O)[C@@H](O)[C@H]2O)C=CC1` [NADPH] yielded a Km [2, 4] of 95 µM and a kcat [2, 4] of 2.5 s⁻¹.
With `C=C(CO)[C@@H]1CC[C@@H](C)[C@@H]2CCC(C)=C[C@@H]21` [artemisinic alcohol, Artemisinic alcohol] the “activity of AaDBR2” value [1] was “No activity was detected”.
With `C=C(C=O)[C@@H]1CC[C@@H](C)[C@@H]2CCC(C)=C[C@@H]21` [artemisinic aldehyde] the “activity of AaDBR2” value [1] was “has activity”, the “Km lower relative to 2-cyclohexen-1-one and (+)-carvone” value ([2]; Table 2 comparison) was “more than 30 fold” and the Km [2, 5] was 19 µM. It also gave a kcat [2, 5] of 2.6 s⁻¹.
With `C=C(C)[C@H]1CC=C(C)C(=O)C1` [(+)-carvone, (+)-Carvone] the “activity of AaDBR2” value [1] was “has activity”, the Km [2, 5] was 650 µM and the kcat [2, 5] was 0.86 s⁻¹.
In the case of `C[C@H]1[C@H](N2CCS(=O)(=O)CC2)O[C@@H]2O[C@@]3(C)CC[C@H]4[C@H](C)CC[C@@H]1[C@@]24OO3` [Artemisone], the “activity relative to artesunate” value [3] is listed as 10-30 fold.
With `COc1cc(/C=C/C=O)ccc1O` [coniferyl aldehyde] the “activity of AaDBR2” value [1] was “No activity was detected”.
With `CC1=CC[C@@H]2C[C@H]1C2(C)C` [(+)-α-pinene] the “activity of AaDBR2” value [1] was “No activity was detected”.
